These are literature values, as cited in patent publication US20080214592A1, “METHODS OF TREATING ANXIETY DISORDERS” (Orexigen Therapeutics, Inc., priority 2005, published 2008).

For `CNCCC(Oc1ccc(C(F)(F)F)cc1)c1ccccc1` (stereo not shown) [Fluoxetine, fluoxetine], the physiological half life result is reported as “about 24 hours”.
